Reference: PubChem BioAssay (NCI)
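Dose response: 5 concentrations. Exposure: 48 h. Format: 96-well plates. Endpoint: linear interpolation; highest concentration if not reached. TGI: concentration producing complete growth inhibition.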

What was measured:
Assay in all cases: NCI anticancer screen, dose series, 48 h
[1] = test system: ACHN renal
[2] = test system: BT-549 breast
[3] = test system: CCRF-CEM leukemia
[4] = test system: M14 melanoma
[5] = test system: MCF7 breast
[6] = test system: MDA-MB-231 breast
[7] = test system: MDA-MB-435
[8] = test system: NCI-H226 lung
[9] = test system: NCI-H460 lung
[10] = test system: SF-295 CNS
[11] = test system: SK-MEL-2 melanoma
[12] = test system: SK-MEL-28 melanoma
[13] = test system: SK-MEL-5 melanoma
[14] = test system: SW-620 colon
[15] = test system: U251 CNS
[16] = test system: UO-31 renal
[17] = test system: HOP-62 NSCLC
[18] = test system: PC-3 prostate
[19] = test system: RPMI-8226 leukemia
[20] = test system: T-47D breast

| SMILES | TGI [1] | TGI [2] | TGI [3] | TGI [4] | TGI [5] | TGI [6] | TGI [7] | TGI [8] | TGI [9] | TGI [10] | TGI [11] | TGI [12] | TGI [13] | TGI [14] | TGI [15] | TGI [16] | TGI [17] | TGI [18] | TGI [19] | TGI [20] |
| --- | --- | --- | --- | --- | --- | --- | --- | --- | --- | --- | --- | --- | --- | --- | --- | --- | --- | --- | --- | --- |
| C/C=C(C)/C=C/CC(C)CCC=C(C)C (stereo not drawn) | > 100 µM | > 100 µM | > 100 µM | > 100 µM | > 100 µM | > 100 µM | > 100 µM | > 100 µM | > 100 µM | > 100 µM | > 100 µM | > 100 µM | > 100 µM | > 100 µM | > 100 µM | > 100 µM |  |  |  |  |
| COc1cc(C2c3cc4c(cc3OC(NC3CCCCC3)C2C)OCO4)cc(OC)c1OC (stereo not drawn) | 40.2 µM | 26.4 µM | > 100 µM | 36.6 µM | > 100 µM | 2.26 µM |  | 15.8 µM | > 100 µM | 0.577 µM | 47.8 µM | > 100 µM | 1.93 µM | > 55.7 µM | 23.9 µM | 32.2 µM | > 64.3 µM | > 28.8 µM | 41.8 µM | 66.7 µM |
| N#Cc1c2ccc([N+](=O)[O-])cc2c(=O)n2c1sc1ccc(C(F)(F)F)cc12 | > 100 µM | > 100 µM |  | > 100 µM |  | > 100 µM | > 100 µM | > 100 µM | > 100 µM | > 100 µM |  | > 100 µM | > 100 µM | > 100 µM | > 100 µM | > 100 µM | > 100 µM |  | > 100 µM | > 100 µM |
| Cc1cc(C)nc(NS(=O)(=O)c2ccc(Nc3nncc(=O)n3N)cc2)n1 | > 100 µM | 32.6 µM | 11.6 µM | > 100 µM | 30.3 µM |  | 33 µM |  | > 100 µM | > 100 µM | > 100 µM | 74.6 µM | 33.1 µM | 44.2 µM | 31.5 µM | 33.9 µM | 34.7 µM | 54.9 µM | 49.8 µM | 38.3 µM |
| C/C=C/c1c(O)c(=O)c2c(OC)cc(OC)c3c4c(OC)cc(OC)c5c(=O)c(O)c(/C=C/C)c(c1c23)c54 | 13.8 µM | 14.3 µM | > 100 µM | > 100 µM | > 100 µM | 34.9 µM | 26.1 µM | 15.8 µM | 44.3 µM | > 100 µM | 24.9 µM | 36.6 µM | 24.3 µM | 87.8 µM | 47.1 µM | 6.33 µM | 54.5 µM | 19.8 µM | > 100 µM |  |
| C[C@H]1O[C@@H](c2c(O)ccc3ccccc23)C[C@@H](N(C)C)C1O (stereo partly drawn) | > 100 µM | > 100 µM | > 100 µM | > 100 µM | > 100 µM | > 100 µM | > 100 µM | > 100 µM | > 100 µM | > 100 µM | > 100 µM | > 100 µM | > 100 µM | > 100 µM | > 100 µM | > 100 µM | > 100 µM | > 100 µM |  |  |
| CCOC(=O)Cc1nnc2c(-c3ccccc3)nc3ccccc3n12 | 48.3 µM | > 100 µM | > 100 µM | > 100 µM | > 100 µM | 45.3 µM | > 100 µM | > 100 µM | > 100 µM |  | 95.2 µM | > 100 µM | > 100 µM | > 100 µM | 48.4 µM | > 100 µM | 27.6 µM | > 100 µM | > 100 µM |  |
| CC(=O)O[C@H]1C(=O)[C@@]2(C)[C@H]([C@H](OC(=O)c3ccccc3)[C@]3(O)C[C@H](OC(=O)[C@H](OC(=O)OCCC(O)CO)[C@@H](NC(=O)c4ccccc4)c4ccccc4)C(C)=C1C3(C)C)[C@]1(OC(C)=O)CO[C@@H]1C[C@@H]2O (stereo partly drawn) | > 62.2 µM | 19.1 µM | 12.2 µM |  | 14.1 µM | 21.6 µM |  | < 0.01 µM | 19 µM | 0.187 µM | > 100 µM |  | 0.613 µM | > 55.8 µM | 19.2 µM | > 100 µM | 19.9 µM | > 100 µM |  |  |
| COc1ccc(CN2C[C@H]3[C@@H](CC(=O)O[C@H]3C)CC2=O)cc1 | > 100 µM | > 100 µM | > 100 µM | > 100 µM | > 100 µM | > 100 µM | > 100 µM |  | > 100 µM | > 100 µM | > 100 µM | > 100 µM | > 100 µM | > 100 µM | > 100 µM | > 100 µM | > 100 µM | > 100 µM | > 100 µM |  |
| OC(c1nc2ccccc2s1)(C(F)(F)F)C(F)(F)F | > 100 µM |  | > 100 µM | > 100 µM | > 100 µM | > 100 µM | > 100 µM | > 100 µM | > 100 µM | > 100 µM | > 100 µM | > 100 µM | > 100 µM | > 100 µM | > 100 µM | > 100 µM | > 100 µM | > 100 µM | > 100 µM | > 100 µM |
| CCC(=O)Nc1ccc(N=Cc2cccc(Oc3ccccc3)c2)cc1 | > 100 µM | > 100 µM | 63.9 µM | > 100 µM | > 100 µM |  | > 100 µM | > 100 µM |  | > 100 µM | > 100 µM | > 100 µM | > 100 µM | > 100 µM |  | > 100 µM | > 100 µM | > 100 µM | 63.1 µM | > 100 µM |
